Data as given in the supplement of paper PMC8671470.
Structures can show the parent of a compound that is named as a salt.

System: BV-173
Test: cell viability (% survival relative to DMSO control); higher = less cytotoxic
Conditions: drug1 concentration 500 nM; drug2 concentration 1000 nM; 72 h
Procedure: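 8x8 drug-combination matrices (0–5000 nM; rosiglitazone and lestaurtinib 0–1000 nM) were run in BV-173 cells for 72 h with CellTiter-Glo read-out. Survival is normalised to DMSO and 10 µM bortezomib and clipped at 100%.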

SMILES	cell viability
CCn1c(=Cc2cccc[n+]2CC)sc(=C2Sc3ccccc3N2C)c1=O [MKT 077] + CN(C)CCNC(=O)c1cccn2c(=O)c3cc4ccccc4cc3nc12 [Bmh-21]	1.33%
CN(CCOc1ccc(Cc2sc(O)nc2O)cc1)c1ccccn1 [Rosiglitazone] + CC(C)(Cc1ccccc1)NCC(O)c1ccc(O)c(NS(C)(=O)=O)c1 [Zinterol hydrochloride]	> 100%
CN(CCOc1ccc(Cc2sc(O)nc2O)cc1)c1ccccn1 [Rosiglitazone] + c1cc(-c2cnn3cc(-c4ccc(OCCN5CCCCC5)cc4)cnc23)ccn1 [Dorsomorphin]	> 100%

Same assay, conditions: drug1 concentration 500 nM; drug2 concentration 5000 nM; 72 h

SMILES	cell viability
O=C(O)CC[N+](=O)[O-] [3-nitropropionic acid] + CCn1c(=Cc2cccc[n+]2CC)sc(=C2Sc3ccccc3N2C)c1=O [MKT 077]	> 100%
CCn1c(=Cc2cccc[n+]2CC)sc(=C2Sc3ccccc3N2C)c1=O [MKT 077] + CN(C)CCNC(=O)c1cccn2c(=O)c3cc4ccccc4cc3nc12 [Bmh-21]	-0.07%
CN(CCOc1ccc(Cc2sc(O)nc2O)cc1)c1ccccn1 [Rosiglitazone] + CC(C)(Cc1ccccc1)NCC(O)c1ccc(O)c(NS(C)(=O)=O)c1 [Zinterol hydrochloride]	97.6%
CN(CCOc1ccc(Cc2sc(O)nc2O)cc1)c1ccccn1 [Rosiglitazone] + c1cc(-c2cnn3cc(-c4ccc(OCCN5CCCCC5)cc4)cnc23)ccn1 [Dorsomorphin]	> 100%

Same assay, conditions: drug1 concentration 1000 nM; drug2 concentration 5 nM; 72 h

SMILES	cell viability
O=C(O)CC[N+](=O)[O-] [3-nitropropionic acid] + CCn1c(=Cc2cccc[n+]2CC)sc(=C2Sc3ccccc3N2C)c1=O [MKT 077]	83.5%
CCn1c(=Cc2cccc[n+]2CC)sc(=C2Sc3ccccc3N2C)c1=O [MKT 077] + CN(C)CCNC(=O)c1cccn2c(=O)c3cc4ccccc4cc3nc12 [Bmh-21]	> 100%
CN(CCOc1ccc(Cc2sc(O)nc2O)cc1)c1ccccn1 [Rosiglitazone] + CC(C)(Cc1ccccc1)NCC(O)c1ccc(O)c(NS(C)(=O)=O)c1 [Zinterol hydrochloride]	> 100%
CN(CCOc1ccc(Cc2sc(O)nc2O)cc1)c1ccccn1 [Rosiglitazone] + c1cc(-c2cnn3cc(-c4ccc(OCCN5CCCCC5)cc4)cnc23)ccn1 [Dorsomorphin]	91.8%

Same assay, conditions: drug1 concentration 1000 nM; drug2 concentration 10 nM; 72 h

SMILES	cell viability
O=C(O)CC[N+](=O)[O-] [3-nitropropionic acid] + CCn1c(=Cc2cccc[n+]2CC)sc(=C2Sc3ccccc3N2C)c1=O [MKT 077]	92.9%
CCn1c(=Cc2cccc[n+]2CC)sc(=C2Sc3ccccc3N2C)c1=O [MKT 077] + CN(C)CCNC(=O)c1cccn2c(=O)c3cc4ccccc4cc3nc12 [Bmh-21]	> 100%
CN(CCOc1ccc(Cc2sc(O)nc2O)cc1)c1ccccn1 [Rosiglitazone] + CC(C)(Cc1ccccc1)NCC(O)c1ccc(O)c(NS(C)(=O)=O)c1 [Zinterol hydrochloride]	> 100%
CN(CCOc1ccc(Cc2sc(O)nc2O)cc1)c1ccccn1 [Rosiglitazone] + c1cc(-c2cnn3cc(-c4ccc(OCCN5CCCCC5)cc4)cnc23)ccn1 [Dorsomorphin]	> 100%

Same assay, conditions: drug1 concentration 1000 nM; drug2 concentration 50 nM; 72 h

SMILES	cell viability
O=C(O)CC[N+](=O)[O-] [3-nitropropionic acid] + CCn1c(=Cc2cccc[n+]2CC)sc(=C2Sc3ccccc3N2C)c1=O [MKT 077]	99.5%
CCn1c(=Cc2cccc[n+]2CC)sc(=C2Sc3ccccc3N2C)c1=O [MKT 077] + CN(C)CCNC(=O)c1cccn2c(=O)c3cc4ccccc4cc3nc12 [Bmh-21]	> 100%
CN(CCOc1ccc(Cc2sc(O)nc2O)cc1)c1ccccn1 [Rosiglitazone] + CC(C)(Cc1ccccc1)NCC(O)c1ccc(O)c(NS(C)(=O)=O)c1 [Zinterol hydrochloride]	> 100%
CN(CCOc1ccc(Cc2sc(O)nc2O)cc1)c1ccccn1 [Rosiglitazone] + c1cc(-c2cnn3cc(-c4ccc(OCCN5CCCCC5)cc4)cnc23)ccn1 [Dorsomorphin]	> 100%

Same assay, conditions: drug1 concentration 1000 nM; drug2 concentration 100 nM; 72 h

SMILES	cell viability
O=C(O)CC[N+](=O)[O-] [3-nitropropionic acid] + CCn1c(=Cc2cccc[n+]2CC)sc(=C2Sc3ccccc3N2C)c1=O [MKT 077]	> 100%
CCn1c(=Cc2cccc[n+]2CC)sc(=C2Sc3ccccc3N2C)c1=O [MKT 077] + CN(C)CCNC(=O)c1cccn2c(=O)c3cc4ccccc4cc3nc12 [Bmh-21]	> 100%
CN(CCOc1ccc(Cc2sc(O)nc2O)cc1)c1ccccn1 [Rosiglitazone] + CC(C)(Cc1ccccc1)NCC(O)c1ccc(O)c(NS(C)(=O)=O)c1 [Zinterol hydrochloride]	> 100%
CN(CCOc1ccc(Cc2sc(O)nc2O)cc1)c1ccccn1 [Rosiglitazone] + c1cc(-c2cnn3cc(-c4ccc(OCCN5CCCCC5)cc4)cnc23)ccn1 [Dorsomorphin]	> 100%

Same assay, conditions: drug1 concentration 1000 nM; drug2 concentration 500 nM; 72 h

SMILES	cell viability
O=C(O)CC[N+](=O)[O-] [3-nitropropionic acid] + CCn1c(=Cc2cccc[n+]2CC)sc(=C2Sc3ccccc3N2C)c1=O [MKT 077]	76.6%
CCn1c(=Cc2cccc[n+]2CC)sc(=C2Sc3ccccc3N2C)c1=O [MKT 077] + CN(C)CCNC(=O)c1cccn2c(=O)c3cc4ccccc4cc3nc12 [Bmh-21]	11.4%
CN(CCOc1ccc(Cc2sc(O)nc2O)cc1)c1ccccn1 [Rosiglitazone] + CC(C)(Cc1ccccc1)NCC(O)c1ccc(O)c(NS(C)(=O)=O)c1 [Zinterol hydrochloride]	> 100%
CN(CCOc1ccc(Cc2sc(O)nc2O)cc1)c1ccccn1 [Rosiglitazone] + c1cc(-c2cnn3cc(-c4ccc(OCCN5CCCCC5)cc4)cnc23)ccn1 [Dorsomorphin]	95.3%

Same assay, conditions: drug1 concentration 1000 nM; drug2 concentration 1000 nM; 72 h

SMILES	cell viability
O=C(O)CC[N+](=O)[O-] [3-nitropropionic acid] + CCn1c(=Cc2cccc[n+]2CC)sc(=C2Sc3ccccc3N2C)c1=O [MKT 077]	88.9%
CCn1c(=Cc2cccc[n+]2CC)sc(=C2Sc3ccccc3N2C)c1=O [MKT 077] + CN(C)CCNC(=O)c1cccn2c(=O)c3cc4ccccc4cc3nc12 [Bmh-21]	2.69%
CN(CCOc1ccc(Cc2sc(O)nc2O)cc1)c1ccccn1 [Rosiglitazone] + CC(C)(Cc1ccccc1)NCC(O)c1ccc(O)c(NS(C)(=O)=O)c1 [Zinterol hydrochloride]	> 100%
CN(CCOc1ccc(Cc2sc(O)nc2O)cc1)c1ccccn1 [Rosiglitazone] + c1cc(-c2cnn3cc(-c4ccc(OCCN5CCCCC5)cc4)cnc23)ccn1 [Dorsomorphin]	> 100%

Same assay, conditions: drug1 concentration 1000 nM; drug2 concentration 5000 nM; 72 h

SMILES	cell viability
O=C(O)CC[N+](=O)[O-] [3-nitropropionic acid] + CCn1c(=Cc2cccc[n+]2CC)sc(=C2Sc3ccccc3N2C)c1=O [MKT 077]	> 100%
CCn1c(=Cc2cccc[n+]2CC)sc(=C2Sc3ccccc3N2C)c1=O [MKT 077] + CN(C)CCNC(=O)c1cccn2c(=O)c3cc4ccccc4cc3nc12 [Bmh-21]	0.15%
CN(CCOc1ccc(Cc2sc(O)nc2O)cc1)c1ccccn1 [Rosiglitazone] + CC(C)(Cc1ccccc1)NCC(O)c1ccc(O)c(NS(C)(=O)=O)c1 [Zinterol hydrochloride]	> 100%
CN(CCOc1ccc(Cc2sc(O)nc2O)cc1)c1ccccn1 [Rosiglitazone] + c1cc(-c2cnn3cc(-c4ccc(OCCN5CCCCC5)cc4)cnc23)ccn1 [Dorsomorphin]	> 100%

Same assay, conditions: drug1 concentration 5000 nM; drug2 concentration 5 nM; 72 h

SMILES	cell viability
O=C(O)CC[N+](=O)[O-] [3-nitropropionic acid] + CCn1c(=Cc2cccc[n+]2CC)sc(=C2Sc3ccccc3N2C)c1=O [MKT 077]	59.7%
